{"source": "patent US6780842B2", "about": "“Ceruloplasmin and an antioxidant composition comprising the same and their uses as neuroprotective agent” (Warner-Lambert Company LLC, priority 1999, dated 2004)", "key": {"[1]": {"system": "P19 neurons", "assay": "Viability of P19 neurons exposed to H2O2 (Alamar Blue)", "type": "cell-based", "conditions": "catalase 84 U; 5 mM hydrogen peroxide during 30 min", "protocol": "(§1) Culture and neuronal differentiation of P19 embryonal carcinoma cells were done according to the procedures of Jeannotte et al. (1997) with the following modifications for microscale adaptation of cultures to 96-well plates: cell aggregates obtained at day 4 of the treatment of P19 cells with retinoic acid were trypsinized with 0.025% trypsin-1 mM EDTA in PBS and subjected to mechanical passages to obtain individual cells which were seeded in gelatin-precoated microwells at a density of 0.7-1×10^5 cells per well. The newly seeded cells (neurons) were cultured in supplemented Neurobasal medium (Neurobasal® containing 0.5 mM L-glutamine and 0.5% B27 supplement) until exposure to oxidative conditions at day 7. […]\n(§2) P19 neurons were exposed to the following prooxidant systems: i) XA/XAO system (which produces •O2^− superoxide radicals and hydrogen peroxide H2O2, according to equation 1, shown below); ii) hydrogen peroxide H2O2; and iii) H2O2/Fe^+2 system (which generates •OH [hydroxyl radicals] via the Fenton reaction, equation 2). […] After they were incubated under oxidative conditions, neurons were analyzed for their residual viability by a fluorimetric assay using the Alamar Blue probe (see section 2.5). […]\n(§3) After they were incubated under oxidative conditions, neurons were analyzed for their residual viability by a fluorimetric assay using the Alamar Blue probe. […]"}, "[2]": {"system": "P19 neurons", "assay": "Viability of P19 neurons exposed to XA/XAO prooxidant system (Alamar Blue)", "type": "cell-based", "conditions": "FIG. 3", "protocol": "as §1, §2, §3"}, "[3]": {"assay": "In vitro antioxidant capacity: inhibition of DPD oxidation by H2O2", "type": "biochemical", "conditions": "84 U catalase; 30 min exposure to 5 mM H2O2 (not shown)", "protocol": "Oxidation of N,N-diethyl-p-phenylenediamine (DPD) by a prooxidant system was used as a general reporter of the amount of ROS generated by that system (Anonymous, 1985; Chahine et al., 1991). Antioxidant capacity of preparations of TRIAD (or of its components) was defined as the ability to inhibit the oxidation of DPD by prooxidants.\nTo estimate the antioxidant capacity of TRIAD preparations in the prooxidant conditions used with P19 neurons, DPD was added to a final concentration of 32 mM to 200 μl of each prooxidant system described above (see section 2.4) and incubated for the times tested with the cells. At the end of incubation, the amount of oxidized DPD was determined at 560 nm using a spectrophotometer adapted to microscale measurement.\nFIG. 5. In vitro antioxidant capacity of CP and TRIAD, in the conditions of H2O2 prooxidant system used with P19 neurons. In this assay, conditions of incubation were as described in the legend to FIG. 4 except that P19 neurons were replaced by N,N-diethyl-p-phenylenediamine (DPD) which absorbs at 560 nm upon oxidation. The experiment was done four times, in triplicate determinations, and results are expressed as means±S.D."}, "[4]": {"system": "CP ferroxidase activity", "assay": "CP ferroxidase activity after incubation with H2O2, without or with pyruvate", "type": "biochemical, bovine", "conditions": "FIG. 8; 5 mM pyruvate, CP 4 μM, 5 mM H2O2, 37° C.", "protocol": "CP (4 μM) was incubated for different times (ranging from 0 to 12 h) in the presence of 5 mM H2O2, at 37° C., in PBS, without or with the addition of pyruvate (5 mM) as a protecting agent. At the end of incubation, catalase was added at a concentration of 0.1 mg/ml (84 U/ml) and incubation resumed at room temperature for 15 min in order to inactivate H2O2. Ferroxidase activity of CP was then measured by absorbence using a modified version of the method of Erel (1998). This method uses a chromogen to complex Fe^2+ ions that were not transformed to Fe^3+ions in the assay solution. The reaction mix contained 0.45M acetate buffer, pH 5.8, 60 μM Fe(NH4)2(SO4).6H2O, and either CP (sample), 25 mM EDTA (control corresponding to 100% iron oxidation) or PBS (control corresponding to 0% iron oxidation).\nFIG. 8. Protection of CP ferroxidase activity by pyruvate in vitro. CP was incubated for various times, at 37° C., in the presence of 5 mM H2O2, without (No protection) or with 5 mM sodium pyruvate. The reaction was stopped by a 5 min incubation with an excess of catalase. Ferroxidase activity was then measured and expressed relatively (%) to that of a control CP sample not exposed to H2O2. The experiment was done three times, in duplicate determinations, and results are expressed as means±S.D."}, "[5]": {"conditions": "Atanasiu et al., 1998; cited from earlier work"}}}
{"compound": "catalase", "values": [{"measurement": "Protection to neurons", "setting": "[1]", "result": 100, "unit": "%"}, {"measurement": "XAO concentration up to which protection was offered", "setting": "[2]; 250 μM XA, CP 4 μM, catalase 84 U", "result": "up to 50 mU/mL"}, {"measurement": "Protection to neurons", "setting": "[2]; 84 U catalase, incubated for 40 min with XAO in the presence of 250 μM XA", "result": "about 10%"}, {"measurement": "Inhibition of DPD oxidation by H2O2", "setting": "[3]", "result": "completely inhibit DPD oxidation"}]}
{"compound": "CC(=O)C(=O)[O-].[Na+]", "note": "[pyruvate, sodium pyruvate]", "values": [{"measurement": "Protection of CP ferroxidase activity against H2O2", "setting": "[4]", "result": "inhibited the loss of ferroxidase activity"}]}
{"compound": "albumin", "values": [{"measurement": "Concentration ensuring good antioxidative activity in vitro", "setting": "[5]", "result": 260, "unit": "µM"}]}
